Measurements: PubChem BioAssay AID330 (DTP/NCI, 2004)
“And” between values parts separate entries of the source, which are not always exact repeats. Equal values may be shown once. Inconclusive results and toxic doses are left out. Rule for the calls: active = survival T/C of 150% or more; inactive = T/C below 125% in these data.

Tested on: P388 leukemia ip, CD2F1 mice, survival T/C
Assay: NCI In Vivo Anticancer Drug Screen. Data for tumor model P388 Leukemia (intraperitoneal) in CD2F1 (CDF1) mice
Conditions: endpoint: median survival time, higher = longer survival
How it was run: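 Mice carrying the transplanted tumor received test compound or vehicle. Survival was recorded in each group, and the value is the treated-group measurement divided by that of the vehicle-treated control group.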

[1] = dose: 50.0 mg/kg/injection, schedule: Q01DX005 (ip), vehicle: saline
[2] = dose: 100.0 mg/kg/injection, schedule: Q01DX005 (ip), vehicle: saline
[3] = dose: 50.0 mg/kg/injection, schedule: Q01DX005 (ip), vehicle: Klucel (hydroxypropylcellulose) (HPC)
[4] = dose: 50.0 mg/kg/injection, schedule: Q01DX009 (ip), vehicle: saline with Tween-80
[5] = dose: 50.0 mg/kg/injection, schedule: Q01DX009 (ip), vehicle: saline
[6] = dose: 100.0 mg/kg/injection, schedule: Q01DX009 (ip), vehicle: saline with Tween-80
[7] = dose: 100.0 mg/kg/injection, schedule: Q01DX009 (ip), vehicle: saline
[8] = dose: 200.0 mg/kg/injection, schedule: Q01DX009 (ip), vehicle: saline with Tween-80
[9] = dose: 200.0 mg/kg/injection, schedule: Q01DX009 (ip), vehicle: saline
[10] = dose: 50.0 mg/kg/injection, schedule: Q01DX009 (ip), vehicle: Klucel (hydroxypropylcellulose) (HPC)
[11] = dose: 100.0 mg/kg/injection, schedule: Q01DX009 (ip), vehicle: Klucel (hydroxypropylcellulose) (HPC)
[12] = dose: 200.0 mg/kg/injection, schedule: Q01DX009 (ip), vehicle: Klucel (hydroxypropylcellulose) (HPC)

Measured: T/C

CC(O)C(=O)N(C)CCCO (stereo unspecified)
inactive: [1] 92 % of control | [2] 101 % of control | dose: 200.0 mg/kg/injection, schedule: Q01DX005 (ip), vehicle: saline 100 % of control

C=CC(=NC(C)(C)C)Nc1c(Cl)cccc1Cl
inactive: dose: 0.79 mg/kg/injection, schedule: Q01DX009 (ip), vehicle: saline 100 % of control | dose: 1.56 mg/kg/injection, schedule: Q01DX009 (ip), vehicle: saline 96 % of control | dose: 3.12 mg/kg/injection, schedule: Q01DX009 (ip), vehicle: saline 108 % of control | dose: 6.25 mg/kg/injection, schedule: Q01DX009 (ip), vehicle: saline with Tween-80 114 % of control | dose: 12.5 mg/kg/injection, schedule: Q01DX009 (ip), vehicle: saline with Tween-80 119 % of control | dose: 12.5 mg/kg/injection, schedule: Q01DX009 (ip), vehicle: saline 109 % of control | dose: 25.0 mg/kg/injection, schedule: Q01DX009 (ip), vehicle: saline 116 % of control

Cc1nc2[nH]cc(-c3ccccc3)c2c(=N)n1-c1ccccc1
inactive: dose: 12.5 mg/kg/injection, schedule: Q01DX005 (ip), vehicle: Klucel (hydroxypropylcellulose) (HPC) 102 % of control | dose: 25.0 mg/kg/injection, schedule: Q01DX005 (ip), vehicle: Klucel (hydroxypropylcellulose) (HPC) 106 % of control | [3] 100 % of control and 104 % of control

CCN(CC)CC(CN(CC)CC)N(CCO)CC(C)C
inactive: [1] 93 % of control | [2] 100 % of control

COc1ccccc1-n1c(C)nc2c(cnn2CN2CCCCC2)c1=O
inactive: [3] 99 % of control | dose: 100.0 mg/kg/injection, schedule: Q01DX005 (ip), vehicle: Klucel (hydroxypropylcellulose) (HPC) 115 % of control | dose: 200.0 mg/kg/injection, schedule: Q01DX005 (ip), vehicle: Klucel (hydroxypropylcellulose) (HPC) 101 % of control

NC(=O)C1CCCN1C(=O)C1CCCN(CCCCCCN2CCCC(C(=O)N3CCCC3C(N)=O)C2)C1 (stereo unspecified)
inactive: dose: 60.0 mg/kg/injection, schedule: Q01DX005 (ip), vehicle: saline 105 % of control | dose: 120.0 mg/kg/injection, schedule: Q01DX005 (ip), vehicle: saline 98 % of control

N#C/C(=C\c1ccc(Cl)cc1)c1ccccc1
inactive: [4] 96 % of control | [5] 100 % of control | [6] 95 % of control | [7] 98 % of control and 96 % of control | [8] 98 % of control | [9] 99 % of control and 92 % of control | dose: 400.0 mg/kg/injection, schedule: Q01DX009 (ip), vehicle: saline with Tween-80 100 % of control | dose: 400.0 mg/kg/injection, schedule: Q01DX009 (ip), vehicle: saline 90 % of control and 91 % of control

Cc1c(COC(=O)NC(C)C)c(COC(=O)NC(C)C)c2n1CS(=O)C2 (stereo unspecified)
active: dose: 200.0 mg/kg/injection, schedule: Q01DX005 (ip), vehicle: saline with Tween-80 176 % of control
inactive: dose: 12.5 mg/kg/injection, schedule: Q01DX005 (ip), vehicle: saline with Tween-80 104 % of control | dose: 25.0 mg/kg/injection, schedule: Q01DX005 (ip), vehicle: saline with Tween-80 111 % of control | dose: 50.0 mg/kg/injection, schedule: Q01DX005 (ip), vehicle: saline with Tween-80 118 % of control

Cc1cn(C)c2c1-c1c(cnn1-c1ccccc1)CC2
inactive: dose: 100.0 mg/kg/injection, schedule: Q04DX003 (ip), vehicle: Klucel (hydroxypropylcellulose) (HPC) 100 % of control | dose: 200.0 mg/kg/injection, schedule: Q04DX003 (ip), vehicle: Klucel (hydroxypropylcellulose) (HPC) 102 % of control | dose: 400.0 mg/kg/injection, schedule: Q04DX003 (ip), vehicle: Klucel (hydroxypropylcellulose) (HPC) 93 % of control

Cc1cc(C)n(-c2ccncc2[N+](=O)[O-])n1
inactive: [5] 101 % of control | [7] 97 % of control | [9] 105 % of control

O=S(=O)(Cc1ccccc1)/N=C\c1ccc(Cl)cc1
inactive: [10] 95 % of control | [11] 103 % of control | [12] 104 % of control

On1cc/c(=N\N=C\c2ccc(N(CCCl)CCCl)cc2)c2ccc(Cl)cc21
inactive: [4] 101 % of control | [6] 101 % of control | [8] 94 % of control

O=C(c1ccccc1)C1Nc2ccc(Cl)cc2C2C=CCC12 (stereo unspecified)
inactive: dose: 60.0 mg/kg/injection, schedule: Q01DX005 (ip), vehicle: saline with Tween-80 102 % of control | dose: 120.0 mg/kg/injection, schedule: Q01DX005 (ip), vehicle: saline with Tween-80 94 % of control | dose: 240.0 mg/kg/injection, schedule: Q01DX005 (ip), vehicle: saline with Tween-80 93 % of control

CN(C)CCCC12OC(c3ccccc31)C(O)c1ccccc12 (stereo unspecified)
inactive: dose: 25.0 mg/kg/injection, schedule: Q01DX009 (ip), vehicle: Klucel (hydroxypropylcellulose) (HPC) 102 % of control | [10] 103 % of control | [11] 105 % of control | [12] 94 % of control

CC1C(=O)C23CC1CCC2C12COC(=O)C1C(C)(C)C(O)CC2OC3=O (stereo unspecified)
inactive: dose: 50.0 mg/kg/injection, schedule: Q04DX002 (ip), vehicle: saline with Tween-80 113 % of control | dose: 100.0 mg/kg/injection, schedule: Q04DX002 (ip), vehicle: saline with Tween-80 93 % of control | dose: 200.0 mg/kg/injection, schedule: Q04DX002 (ip), vehicle: saline with Tween-80 112 % of control

Oc1c(O)c(Br)c(Br)c(Br)c1Br
inactive: [7] 107 % of control and 95 % of control | [9] 111 % of control
